Data published in patent US8530490B2, “Uracil compound or salt thereof having human deoxyuridine triphosphatase inhibitory activity” (Taiho Pharmaceutical Co., Ltd., priority 2008, dated 2013).

molecular target: human dUTPase (Homo sapiens (Human), UniProt P33316); experiment: Human dUTPase inhibitory effect: production of [5-3H]dUMP from [5-3H]dUTP, measured by HPLC with flow scintillation; assay type: biochemical; details: [5-3H]dUMP production from [5-3H]dUTP, 37° C., 15 minutes
Method: The inhibitory activity of the compound of the present invention against human dUTPase was determined by measuring the production of [5-^3H]deoxyuridine monophosphate (hereinafter, referred to as [5-^3H]dUMP) from [5-^3H]deoxyuridine triphosphate (hereinafter, referred to as [5-^3H]dUTP) according to a method shown below.
Specifically, 0.2 mL in total of a solution containing 0.02 mL of 1 μM dUTP (including 588 Bq/mL [5-3H]dUTP), 0.05 mL of a 0.2 M Tris buffer solution (pH 7.4), 0.05 mL of 16 mM magnesium chloride, 0.02 mL of 20 mM 2-mercaptoethanol, 0.02 mL of a 1% aqueous solution of fetal bovine serum-derived albumin, 0.02 mL of varying concentrations of test compound solutions or pure water as a control, and 0.02 mL of a solution of human dUTPase (expressed using E. coli and purified) was reacted at 37° C. for 15 minutes. Immediately after the reaction, the solution was heated at 100° C. for 1 minute to terminate the reaction, followed by centrifugation at 15000 rpm for 2 minutes. An aliquot (150 μL) of the supernatant thus obtained by centrifugation was analyzed using an Atlantis dC18 column (manufactured by Waters Corp., 4.6×250 mm) and a high-performance liquid chromatograph (manufactured by Shimadzu Corp., Prominence). Elution was performed at a flow rate of 0.8 mL/min for 30 minutes by a concentration gradient from a 4:6 mixed solution of a mobile phase A (10 mM potassium dihydrogen phosphate (pH 6.7), 10 mM tetrabutylammonium, and 0.25% methanol) and a mobile phase B (50 mM potassium dihydrogen phosphate (pH 6.7), 5.6 mM tetrabutylammonium, and 30% methanol) to the mobile phase B. The eluate was mixed with a scintillator (manufactured by PerkinElmer Co., Ltd., Ultima-Flo AP) at a 1:2 ratio, and the radioactivity of the produced [5-^3H]dUMP (RT 10.2 min) was measured using Radiomatic Flow Scintillation Analyzer (manufactured by PerkinElmer Co., Ltd., 525TR).
The inhibitory activity of the test compound was determined according to the formula shown below.

human dUTPase, sequence (P33316 94-252): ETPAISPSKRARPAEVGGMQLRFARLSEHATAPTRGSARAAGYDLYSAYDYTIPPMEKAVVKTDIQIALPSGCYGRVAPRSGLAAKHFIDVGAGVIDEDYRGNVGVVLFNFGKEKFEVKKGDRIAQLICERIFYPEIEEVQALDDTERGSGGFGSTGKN

Structure (SMILES) | IC50
C[C@@H](NS(=O)(=O)CCCCCn1ccc(=O)[nH]c1=O)c1cccc(OC2CCCC2)c1 [Example 106, (R)—N-(1-(3-(cyclopentyloxy)phenyl)ethyl)-5-(2,4-dioxo-3,4-dihydropyrimidin-1(2H)-yl)pentane-1-sulfonamide] | 120 nM
C[C@@H](NS(=O)(=O)CCCOCn1ccc(=O)[nH]c1=O)c1cccc(O[C@H]2CCOC2)c1 [Example 49, 3-((2,4-dioxo-3,4-dihydropyrimidin-1(2H)-yl)methoxy)-N—((R)-1-(3-((S)-tetrahydrofuran-3-yloxy)phenyl)ethyl)propane-1-sulfonamide] | 940 nM
C[C@@H](NS(=O)(=O)CCCOCn1ccc(=O)[nH]c1=O)c1ccc(F)c(OCC(F)(F)F)c1 [Example 54, (R)-3-((2,4-dioxo-3,4-dihydropyrimidin-1(2H)-yl)methoxy)-N-(1-(4-fluoro-3-(2,2,2-trifluoroethoxy)phenyl)ethyl)propane-1-sulfonamide] | 230 nM
C[C@@H](NS(=O)(=O)CCCOCn1ccc(=O)[nH]c1=O)c1cccc(OCC(C)(C)O)c1 [Example 2, (R)-3-((2,4-dioxo-3,4-dihydropyrimidin-1(2H)-yl)methoxy)-N-(1-(3-(2-hydroxy-2-methylpropoxy)phenyl)ethyl)propane-1-sulfonamide] | 1870 nM
O=c1ccn(COCCCS(=O)(=O)NC(c2ccc(F)cc2)c2ccc(F)c(OCC3CC3)c2)c(=O)[nH]1 (stereo not shown) [Example 19, N-((3-(cyclopropylmethoxy)-4-fluorophenyl)(4-fluorophenyl)methyl)-3-((2,4-dioxo-3,4-dihydropyrimidin-1(2H)-yl)methoxy)propane-1-sulfonamide] | 240 nM
CC(C)(CCCOCn1ccc(=O)[nH]c1=O)NS(=O)(=O)c1ccccc1Cl [Example 142, 2-chloro-N-(5-((2,4-dioxo-3,4-dihydropyrimidin-1(2H)-yl)methoxy)-2-methylpentan-2-yl)benzenesulfonamide] | 7640 nM
CC(C)(NS(=O)(=O)c1cccc(OCC2CC2)c1)c1ccc(Cn2ccc(=O)[nH]c2=O)cc1 [Example 178, 3-(cyclopropanemethoxy)-N-(2-(4-((2,4-dioxo-3,4-dihydropyrimidin-1(2H)-yl)methyl)phenyl)propan-2-yl)benzenesulfonamide] | 240 nM
O=c1ccn(COCCCS(=O)(=O)NCc2cccc(OC3CCCC3)c2)c(=O)[nH]1 [Example 21, N-(3-(cyclopentyloxy)benzyl)-3-((2,4-dioxo-3,4-dihydropyrimidin-1(2H)-yl)methoxy)propane-1-sulfonamide] | 270 nM
CC(C)(CCCOCn1ccc(=O)[nH]c1=O)NS(=O)(=O)c1cccc(F)c1 [Example 150, N-(5-((2,4-dioxo-3,4-dihydropyrimidin-1(2H)-yl)methoxy)-2-methylpentan-2-yl)-3-fluorobenzenesulfonamide] | 5670 nM
C[C@@H](NS(=O)(=O)CC/C=C/Cn1ccc(=O)[nH]c1=O)c1cccc(OCC2CC2)c1 [Example 110, (R,E)-N-(1-(3-(cyclopropylmethoxy)phenyl)ethyl)-5-(2,4-dioxo-3,4-dihydropyrimidin-1(2H)-yl)pent-3-ene-1-sulfonamide] | 50 nM
CC[C@@H](NS(=O)(=O)CCCOCn1ccc(=O)[nH]c1=O)c1cccc(OC2CCCC2)c1 [Example 41, (R)—N-(1-(3-(cyclopentyloxy)phenyl)propyl)-3-((2,4-dioxo-3,4-dihydropyrimidin-1(2H)-yl)methoxy)propane-1-sulfonamide] | 40 nM
O=c1ccn(COCCCS(=O)(=O)N[C@H](c2ccc(F)cc2)c2ccc(F)c(OCC3CC3)c2)c(=O)[nH]1 [Example 37, (R)—N-((3-(cyclopropylmethoxy)-4-fluorophenyl)(4-fluorophenyl)methyl)-3-((2,4-dioxo-3,4-dihydropyrimidin-1(2H)-yl)methoxy)propane-1-sulfonamide] | 100 nM
CC[C@@H](NS(=O)(=O)c1ccc(Cn2ccc(=O)[nH]c2=O)cc1)c1ccc(F)c(OCC2CC2)c1 [Example 97, (R)—N-(1-(3-(cyclopropylmethoxy)-4-fluorophenyl)propyl)-4-((2,4-dioxo-3,4-dihydropyrimidin-1(2H)-yl)methyl)benzenesulfonamide] | 580 nM
CC[C@@H](NS(=O)(=O)CCCn1ccc(=O)[nH]c1=O)c1ccccc1 [Example 118, (R)-3-(2,4-dioxo-3,4-dihydropyrimidin-1(2H)-yl)-N-(1-phenylpropyl)propane-1-sulfonamide] | 9800 nM
C[C@@H](NS(=O)(=O)CCCOCn1ccc(=O)[nH]c1=O)c1cccc(O[C@@H]2CCOC2)c1 [Example 6, 3-((2,4-dioxo-3,4-dihydropyrimidin-1(2H)-yl)methoxy)-N—((R)-1-(3-((R)-tetrahydrofuran-3-yloxy)phenyl)ethyl)propane-1-sulfonamide] | 460 nM
O=c1ccn(Cc2ccc(S(=O)(=O)NC(c3ccccc3)c3ccccc3)cc2)c(=O)[nH]1 [Example 96, N-benzhydryl-4-((2,4-dioxo-3,4-dihydropyrimidin-1(2H)-yl)methyl)benzenesulfonamide] | 4620 nM
CC[C@H](C)COc1cccc([C@@H](C)NS(=O)(=O)CCCOCn2ccc(=O)[nH]c2=O)c1 [Example 59, 3-((2,4-dioxo-3,4-dihydropyrimidin-1(2H)-yl)methoxy)-N—((R)-1-(3-((S)-2-methylbutoxy)phenyl)ethyl)propane-1-sulfonamide] | 720 nM
C[C@@H](NS(=O)(=O)CCCOCn1ccc(=O)[nH]c1=O)c1cccc(OC(F)(F)C(F)(F)F)c1 [Example 55, (R)-3-((2,4-dioxo-3,4-dihydropyrimidin-1(2H)-yl)methoxy)-N-(1-(3-(perfluoroethoxy)phenyl)ethyl)propane-1-sulfonamide] | 410 nM
O=c1ccn(COCCCS(=O)(=O)NCc2ccc(F)c(OCC3CC3)c2)c(=O)[nH]1 [Example 7, N-(3-(cyclopropylmethoxy)-4-fluorobenzyl)-3-((2,4-dioxo-3,4-dihydropyrimidin-1(2H)-yl)methoxy)propane-1-sulfonamide] | 640 nM
O=c1ccn(COCCCS(=O)(=O)N[C@@H](c2ccc(F)c(OCC3CC3)c2)c2cccs2)c(=O)[nH]1 [Example 38, (S)—N-((3-(cyclopropylmethoxy)-4-fluorophenyl)(thiophen-2-yl)methyl)-3-((2,4-dioxo-3,4-dihydropyrimidin-1(2H)-yl)methoxy)propane-1-sulfonamide] | 30 nM
CC[C@@H](NS(=O)(=O)CCCOCn1ccc(=O)[nH]c1=O)c1ccccc1 [Example 83, (R)-3-((2,4-dioxo-3,4-dihydropyrimidin-1(2H)-yl)methoxy)-N-(1-phenylpropyl)propane-1-sulfonamide] | 4780 nM
CC(C)(CCCOCn1ccc(=O)[nH]c1=O)NS(=O)(=O)c1cc(Br)c(Br)s1 [Example 149, 4,5-dibromo-N-(5-((2,4-dioxo-3,4-dihydropyrimidin-1(2H)-yl)methoxy)-2-methylpentan-2-yl)thiophene-2-sulfonamide] | 7650 nM
CCC(CC)(NS(=O)(=O)CCCOCn1ccc(=O)[nH]c1=O)c1ccc(F)c(OCC2CC2)c1 [Example 20, N-(3-(3-(cyclopropylmethoxy)-4-fluorophenyl)pentan-3-yl)-3-((2,4-dioxo-3,4-dihydropyrimidin-1(2H)-yl)methoxy)propane-1-sulfonamide] | 190 nM
CCC[C@H](C)Oc1cccc([C@@H](C)NS(=O)(=O)CCCOCn2ccc(=O)[nH]c2=O)c1 [Example 70, 3-((2,4-dioxo-3,4-dihydropyrimidin-1(2H)-yl)methoxy)-N—((R)-1-(3-((S)-pentan-2-yloxy)phenyl)ethyl)propane-1-sulfonamide] | 760 nM
C[C@@H](NS(=O)(=O)CCCOCn1ccc(=O)[nH]c1=O)c1ccc(F)c(OC2CCCC2)c1 [Example 24, (R)—N-(1-(3-(cyclopentyloxy)-4-fluorophenyl)ethyl)-3-((2,4-dioxo-3,4-dihydropyrimidin-1(2H)-yl)methoxy)propane-1-sulfonamide] | 40 nM
CC(C)COc1cccc(C(NS(=O)(=O)CCCOCn2ccc(=O)[nH]c2=O)c2ccccc2)c1 (stereo not shown) [Example 16, 3-((2,4-dioxo-3,4-dihydropyrimidin-1(2H)-yl)methoxy)-N-((3-isobutoxyphenyl)(phenyl)methyl)propane-1-sulfonamide] | 600 nM
CC(C)(CCCOCn1ccc(=O)[nH]c1=O)NS(=O)(=O)c1cccc(OCC2CC2)c1 [Example 159, 3-(cyclopropylmethoxy)-N-(5-((2,4-dioxo-3,4-dihydropyrimidin-1(2H)-yl)methoxy)-2-methylpentan-2-yl)benzenesulfonamide] | 260 nM
O=c1ccn(COCCCS(=O)(=O)N[C@@H](c2cccc(OC3CCCC3)c2)C2CC2)c(=O)[nH]1 [Example 42, (R)—N-((3-(cyclopentyloxy)phenyl)(cyclopropyl)methyl)-3-((2,4-dioxo-3,4-dihydropyrimidin-1(2H)-yl)methoxy)propane-1-sulfonamide] | 330 nM
